Experimental data as given in patent publication US20240116877A1, “KIT KINASE INHIBITORS AND METHODS OF USE THEREOF” (Deciphera Pharmaceuticals, LLC, priority 2021, published 2024).
Read-outs that look alike come from different tables or passages of the source.

Columns and labels:
c-KIT kinase (uKIT) = c-KIT kinase (uKIT) (Homo sapiens (Human), UniProt P10721); assay: Biochemical Assay for uKIT (coupled pyruvate kinase/lactate dehydrogenase assay); conditions: Inhibition of biochemical activity of uKIT kinase; 1 mM ATP
Chain of c-KIT kinase (uKIT) (P10721 other isoform, or with tags, fused parts or gaps): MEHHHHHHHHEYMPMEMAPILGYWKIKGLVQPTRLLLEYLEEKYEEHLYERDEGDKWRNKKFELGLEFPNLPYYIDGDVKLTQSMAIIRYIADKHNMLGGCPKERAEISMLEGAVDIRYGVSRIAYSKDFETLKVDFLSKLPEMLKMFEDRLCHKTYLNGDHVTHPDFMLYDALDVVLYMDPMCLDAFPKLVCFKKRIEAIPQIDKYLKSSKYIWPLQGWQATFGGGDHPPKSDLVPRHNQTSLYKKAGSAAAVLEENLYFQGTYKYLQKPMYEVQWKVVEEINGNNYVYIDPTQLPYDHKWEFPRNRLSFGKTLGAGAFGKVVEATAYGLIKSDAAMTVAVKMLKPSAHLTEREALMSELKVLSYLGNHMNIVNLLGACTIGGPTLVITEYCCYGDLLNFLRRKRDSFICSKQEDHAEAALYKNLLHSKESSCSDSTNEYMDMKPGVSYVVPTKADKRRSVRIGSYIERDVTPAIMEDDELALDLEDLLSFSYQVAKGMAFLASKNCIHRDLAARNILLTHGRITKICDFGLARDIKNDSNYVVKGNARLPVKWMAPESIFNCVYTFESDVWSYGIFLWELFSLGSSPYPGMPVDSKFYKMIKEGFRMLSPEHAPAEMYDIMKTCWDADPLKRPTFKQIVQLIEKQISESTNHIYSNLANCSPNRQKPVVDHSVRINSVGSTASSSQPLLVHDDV
In short: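 IC50 from percent inhibition of reaction rate over 2-3 h, relative to no-compound and known-inhibitor controls. KIT enzyme (16 nM or 4.36 nM, two sequences) ran with 1 mM ATP and 0.7 mg/mL PE4Y in Tris pH 7.5, 30° C; ATP turnover coupled to NADH loss at 340 nm.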

Ba/F3 KIT mutant cells = assay: Ba/F3 mutant KIT Cell Proliferation Assays (resazurin); assay type: cell-based; conditions: Mus musculus, BaF3
In short: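 IC50 values come from resazurin fluorescence (ex 540, em 600) after 5 h dye exposure, added as a 440 μM solution. Cells were IL-3-independent Ba/F3 expressing mutant KIT from a lentiviral vector, puromycin-selected.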

GIST 430 cells = assay: GIST 430 Cell Proliferation Assay (resazurin); assay type: cell-based; conditions: Homo sapiens; GIST430 cell proliferation
In short: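 Five thousand cells per well were exposed to serially diluted compound in complete growth medium for 115 h at 37 degrees Celsius, 5% CO2. Resazurin was then added for a further 5 h, fluorescence read at 540 nm excitation/600 nm emission, and IC50 values calculated.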

[1] = Ba/F3 KIT AYdup-V654A mutant cell proliferation, read-out: AYdup-V654A IC50
[2] = Ba/F3 KIT exon11del-V654A mutant cell proliferation, read-out: exon11del-V654A IC50
[3] = Ba/F3 KIT exon11del-Y823D mutant cell proliferation, read-out: exon11del-Y823D IC50
[4] = Ba/F3 KIT AYdup mutant cell proliferation, read-out: AYdup IC50
[5] = Ba/F3 KIT AYdup-D816G mutant cell proliferation, read-out: AYdup-D816G IC50

Structure (SMILES) | IC50 (c-KIT kinase (uKIT)) | IC50 (Ba/F3 KIT mutant cells; [1]) | IC50 (Ba/F3 KIT mutant cells; [2]) | IC50 (Ba/F3 KIT mutant cells; [3]) | IC50 (GIST 430 cells) | IC50 (Ba/F3 KIT mutant cells; [4]) | IC50 (Ba/F3 KIT mutant cells; [5])
COCCOc1cc(F)c2c(Nc3ccc(NC(=O)C4(C(=O)NCCC(C)(C)F)CC4)cc3)ncnc2c1 [Example 75] | 10 to 100 nM | 100 to 1000 nM | 10 to 100 nM | > 1000 nM | 100 to 1000 nM | – | –
CC(C)(F)CCNC(=O)Nc1ccc(Nc2ncnc3cc(OCCN4CCOCC4)cc(F)c23)cc1 [Example 39] | ≤ 10 nM | 10 to 100 nM | 10 to 100 nM | 10 to 100 nM | ≤ 10 nM | ≤ 10 nM | 10 to 100 nM
COCCOc1cc(F)c2c(Nc3ccc(NC(=O)NCCC(C)(C)C#N)cc3F)ncnc2c1 [Example 70] | > 1000 nM | 100 to 1000 nM | 100 to 1000 nM | 100 to 1000 nM | > 1000 nM | – | –
CC(C)(F)CCNC(=O)Nc1ccc(Nc2ncnc3cc(OC4CCOCC4)cc(F)c23)cc1 [Example 138] | ≤ 10 nM | 10 to 100 nM | ≤ 10 nM | 100 to 1000 nM | 10 to 100 nM | ≤ 10 nM | 10 to 100 nM
COCCOc1cc(F)c2c(Nc3ccc(NC(=O)N4CCC(C(C)(C)C)C4)cc3)ncnc2c1 (stereo not drawn) [Example 122] | 10 to 100 nM | 100 to 1000 nM | 10 to 100 nM | > 1000 nM | 100 to 1000 nM | – | –
COCCOc1cc(F)c2c(Nc3ccc(NC(=O)NCCCC(C)(C)C#N)cc3)ncnc2c1 [Example 99] | ≤ 10 nM | 10 to 100 nM | ≤ 10 nM | 10 to 100 nM | ≤ 10 nM | – | –
COCCOc1cc(F)c2c(Nc3ccc(NC(=O)CC(=O)NC4COC4)cc3)ncnc2c1 [Example 93] | 100 to 1000 nM | > 1000 nM | 100 to 1000 nM | – | > 1000 nM | – | –
CCN(C(=O)CC(=O)Nc1ccc(Nc2ncnc3cc(OCCOC)cc(F)c23)cc1)C(C)C [Example 146] | 100 to 1000 nM | 100 to 1000 nM | 10 to 100 nM | – | 100 to 1000 nM | – | –
COCCOc1cc(F)c2c(Nc3ccc(NC(=O)CC(=O)N4CC[C@@H](C)C4)cc3)ncnc2c1 [Example 198] | 10 to 100 nM | 10 to 100 nM | 100 to 1000 nM | 100 to 1000 nM | 10 to 100 nM | – | –
COCCOc1cc(F)c2c(Nc3ccc(NC(=O)CC(=O)N4CCCC4(C)C)cc3)ncnc2c1 [Example 140] | 10 to 100 nM | 10 to 100 nM | 10 to 100 nM | 100 to 1000 nM | 10 to 100 nM | – | –
COCCOc1cc(OC)c2c(Nc3ccc(NC(=O)CC(=O)NC4CCC4)cc3)ncnc2c1 [Example 183] | 10 to 100 nM | ≤ 10 nM | 10 to 100 nM | 10 to 100 nM | 10 to 100 nM | – | –
COCCOc1cc(F)c2c(Nc3ccc(NC(=O)CC(=O)NC4(C(F)(F)F)CC4)cc3)ncnc2c1 [Example 129] | 10 to 100 nM | 10 to 100 nM | ≤ 10 nM | > 1000 nM | 10 to 100 nM | – | –
COCCOc1cc(F)c2c(Nc3ccc(NC(=O)COCCC(C)C)cc3)ncnc2c1 [Example 47] | ≤ 10 nM | 10 to 100 nM | 10 to 100 nM | 10 to 100 nM | ≤ 10 nM | ≤ 10 nM | 10 to 100 nM
COCCOc1cc(F)c2c(Nc3ccc(NC(=O)COCC4CCCO4)cc3)ncnc2c1 (stereo not drawn) [Example 58] | 10 to 100 nM | 100 to 1000 nM | 100 to 1000 nM | > 1000 nM | 10 to 100 nM | – | –
CNC(=O)COc1cc(F)c2c(Nc3ccc(NC(=O)NCCC(C)(C)F)cc3)ncnc2c1 [Example 147] | 10 to 100 nM | 100 to 1000 nM | 10 to 100 nM | > 1000 nM | 100 to 1000 nM | – | –
COCCOc1cc(F)c2c(Nc3ccc(NC(=O)CC(=O)NC4CC5(COC5)C4)cc3)ncnc2c1 [Example 114] | 100 to 1000 nM | 100 to 1000 nM | 100 to 1000 nM | > 1000 nM | 100 to 1000 nM | – | –
COCCOc1cc(F)c2c(Nc3ccc(NC(=O)CN(C)C(=O)C(C)C)cc3)ncnc2c1 [Example 66] | 10 to 100 nM | 10 to 100 nM | 10 to 100 nM | > 1000 nM | 10 to 100 nM | – | –
COCCOc1cc(F)c2c(Nc3ccc(NC(=O)CC(=O)NC4(C)COC4)cc3)ncnc2c1 [Example 144] | 100 to 1000 nM | 100 to 1000 nM | 100 to 1000 nM | – | 100 to 1000 nM | – | –
COCCOc1cc(F)c2c(Nc3ccc(NC(=O)NCCC4COC4)cc3)ncnc2c1 [Example 27] | 100 to 1000 nM | > 1000 nM | > 1000 nM | – | > 1000 nM | – | –
COCCOc1cc(F)c2c(Nc3ccc(NC(=O)CNC(=O)CC(C)(C)C)cc3)ncnc2c1 [Example 102] | 10 to 100 nM | 10 to 100 nM | 10 to 100 nM | 10 to 100 nM | ≤ 10 nM | ≤ 10 nM | 10 to 100 nM
COCCOc1cc(F)c2c(Nc3ccc(NC(=O)CC(=O)NCC4CCOCC4)cc3)ncnc2c1 [Example 78] | 100 to 1000 nM | 100 to 1000 nM | 10 to 100 nM | > 1000 nM | 100 to 1000 nM | – | –
COCCOc1cc(F)c2c(Nc3ccc(NC(=O)CC(=O)NCC4CCCCC4)cc3)ncnc2c1 [Example 91] | ≤ 10 nM | 10 to 100 nM | 10 to 100 nM | 100 to 1000 nM | 10 to 100 nM | – | –
COCCCOc1cc(F)c2c(Nc3ccc(NC(=O)NCCC(C)(C)F)cc3)ncnc2c1 [Example 120] | ≤ 10 nM | 10 to 100 nM | ≤ 10 nM | 100 to 1000 nM | 10 to 100 nM | – | –
COCCOc1cc(F)c2c(Nc3ccc(NC(=O)CCCC(C)(C)C)cc3)ncnc2c1 [Example 16] | ≤ 10 nM | 10 to 100 nM | ≤ 10 nM | 10 to 100 nM | ≤ 10 nM | – | ≤ 10 nM
CO[C@@H](C)COc1cc(F)c2c(Nc3ccc(NC(=O)NCCC(C)(C)F)cc3)ncnc2c1 [Example 7, (S)-1-(3-fluoro-3-methylbutyl)-3-(4-((5-fluoro-7-(2-methoxypropoxy)quinazolin-4-yl)amino)phenyl)urea] | ≤ 10 nM | 10 to 100 nM | 10 to 100 nM | 10 to 100 nM | 10 to 100 nM | – | –
COCCOc1cc(F)c2c(Nc3ccc(NC(=O)CC(=O)N4CCCCC4(C)C)cc3)ncnc2c1 [Example 142] | 10 to 100 nM | 10 to 100 nM | 10 to 100 nM | 10 to 100 nM | 10 to 100 nM | – | –
COCCOc1cc(F)c2c(Nc3ccc(NC(=O)C4(C(=O)NCC(C)C)CC4)cc3)ncnc2c1 [Example 71] | 10 to 100 nM | 100 to 1000 nM | 10 to 100 nM | > 1000 nM | 100 to 1000 nM | – | –
COCCOc1cc(F)c2c(Nc3ccc(NC(=O)CC(=O)NC(C)(C)C)cc3)ncnc2c1 [Example 124] | 10 to 100 nM | 10 to 100 nM | 10 to 100 nM | 100 to 1000 nM | 10 to 100 nM | – | –
COCCOc1cc(F)c2c(Nc3ccc(NC(=O)CC(=O)NC4(C(C)C)CC4)cc3)ncnc2c1 [Example 128] | 10 to 100 nM | 10 to 100 nM | ≤ 10 nM | 100 to 1000 nM | 10 to 100 nM | – | –
